Measured values from US6423854B1, “Aminophenol derivatives and their use in cosmetics” (L'Oreal, priority 1997, dated 2002).

Tested on: co-culture of keratinocytes and melanocytes
Experiment: Inhibition of melanogenesis (depigmenting activity) in a co-culture of keratinocytes and melanocytes
Format: cell-based
Conditions: for Class (maximum depigmenting activity): inhibition of melanogenesis relative to control; for IC50: co-culture of keratinocytes and melanocytes, read-out: IC50 (concentration for which a 50% inhibition of melanogenesis is observed)
Procedure: This test corresponds to the one described in patent FR 2,734,825 filed by the Applicant, as well as in the article by R. Schmidt, P. Krien and M. Régnier, Anal. Biochem., 235(2), 113-18, (1996). This test is thus carried out on a co-culture of keratinocytes and melanocytes.
For each test compound, the IC50 value, which corresponds to the micromolar (μM) concentration for which a 50% inhibition of melanogenesis is observed, is determined.
Moreover, each of these compounds is classed as regards their maximum depigmenting activity:
Class 1: 10 to 30% inhibition of melanogenesis relative to the control (same experiment without test compound);
Class 2: 30 to 60% inhibition of melanogenesis relative to the control (same experiment without test compound);
Class 3: 60 to 100% inhibition of melanogenesis relative to the control (same experiment without test compound).

CCOC(=O)Nc1ccc(O)cc1 [Compound of Example 1, N-Ethyloxycarbonyl-4-aminophenol]
Class (maximum depigmenting activity) (1 μM): 3 to 1 μM (Class 3: 60 to 100% inhibition of melanogenesis relative to the control)
IC50: 1 µM

CCOC(=O)Nc1ccc(OC(=O)OCC)cc1 [Compound of Example 2, N-Ethyloxycarbonyl-O-ethyloxycarbonyl-4-aminophenol]
Class (maximum depigmenting activity) (200 μM): 3 to 200
IC50: 50 µM

CC(C)CCC[C@@H](C)[C@H]1CC[C@H]2[C@@H]3CC=C4C[C@@H](OC(=O)Nc5ccc(O)cc5)CC[C@]4(C)[C@H]3CC[C@]12C [Compound of Example 3, N-Cholesteryloxycarbonyl-4-aminophenol]
Class (maximum depigmenting activity) (200 μM): 3 to 200
IC50: 10 µM

O=c1cc(CO)occ1O [Kojic acid, reference compound]
Class (maximum depigmenting activity) (500 μM): 2 to 500
IC50: 500 µM
